{
  "source": "patent US12274689B2",
  "about": "“Compound for the management of feline diabetes” (INCREVET, INC., priority 2019, dated 2025)",
  "key": {"[1]": {"system": "ZDF rats", "test": "plasma glucose in male Zucker Diabetic Fatty rats, daily oral dosing (study 338)", "assay_type": "in vivo", "settings": "for plasma glucose levels / plasma glucose levels, Day 21 Δ: male ZDF rats; for plasma glucose levels, Day 21 Δ: change Day 0 to Day 21"}, "[2]": {"system": "client-owned cats diagnosed with diabetes mellitus", "test": "field effectiveness study in client-owned diabetic cats", "assay_type": "in vivo, cat", "set-up": "mean serum glucose: unit: mg/dL", "protocol": "In a field effectiveness study, client-owned cats that had been diagnosed with diabetes mellitus based on: i) two separate fasting (≥6 h) blood glucose measurements>250 mg dL^−1; ii) glucosuria; iii) fructosamine>450 μmol L^−1 (subsequently changed to >360 μmol L^−1 due to a change in the testing laboratory methodology), and iv) one or more of the following: polyuria/polydipsia, polyphagia and/or weight loss (documented in the cat's medical records) were enrolled. Cats with suspected diabetes mellitus were evaluated during visit 1 (within 7 days prior to day 0). […] Cats were prescribed a diet for diabetic animals (Purina DM, either dry or wet variety). Cats were returned to the clinic for evaluation of glycemic control during visits 3 (day 14±3), 4 (day 28±3), and 5 (day 56±3). The treatment period was from visit 2 (day 0) through visit 5 (day 56±3). A cat could have been brought back to the clinic at any time for unscheduled visits if such visits were determined to be necessary by the owner or investigator. Eight-hour blood glucose curves (blood samples collected every 2 h±15 min for 8 h) were conducted at every visit starting with visit 2 (day 0) and blood glucose was measured using an AlphaTRAK 2 glucometer (Abbott Laboratories). Blood samples for hematology and serum chemistry were collected at screening and during each scheduled visit after initiation of dosing. A central laboratory was used to evaluate all clinical pathology samples (blood, serum, and urine) that are not analyzed in the clinic for blood glucose curves.\nSerum chemistries included assessment of fructosamine. […] To accommodate the change in reference range, data were harmonized by expression as a percentage of the upper limit of normal and log-transformed percentages were analyzed by repeated measures ANCOVA with an unstructured covariance and visit as a fixed effect. The upper limit of normal for the testing laboratory for fasting serum glucose was 155 mg dL^−1. The data below were tabulated after 32 cats completed the day 56 visit.\nEach cat was classified as having achieved (or not achieved) glycemic control on Day 56±3 (success/failure). Treatment success was defined as improvement of at least one blood glucose variable (BG mean<250 mg dL^−1; or fructosamine<450 μmol/L or <360 μmol/L, depending on the assay reference range at the time of the analysis), and the veterinarian's assessment of adequate glycemic control at the final evaluation. All cats that remained on-study to V5 were considered treatment successes. Of the 8 cats that were considered treatment failures, 6 cats were removed from the study following an SAE, 1 cat was removed at the sponsor's request, and 1 cat was removed due to the use of a study-proscribed medication to treat an AE. Table 3 also tallies the cats achieving a fructosamine concentration less than the upper limit of normal (356 μmol L^−1 initially and 275 μmol L^−1 subsequently).\nResponsibility for assessing clinical signs of diabetes mellitus was divided between owners and treating veterinarians. Weight was recorded at each visit by the veterinarian, and the signs of polydipsia, polyuria and polyphagia were recorded at each visit by the owner, using a four-point (0 to 3) integer score in which low scores represented favorable ratings.\nIn addition to providing a measure of the status of the cat as a function of time, the quantitative assessments were used to produce a binary outcome of success or failure at study completion. To score as a success by weight, the weight at Visit 5 was to exceed the weight at Visit 2 (treatment initiation). To score as success by the other signs the owner score at visit 5 was to be less than the owner score at Visit 2.\nGlucose curves were constructed by glucometer measurement of blood sampled at hours 0, 2, 4, 6 and 8 post-dose. […]"}, "[3]": {"system": "healthy cats", "test": "21-day high-dose study in healthy cats (study 3)", "assay_type": "in vivo, cat", "settings": "15 mg kg^−1 bid (30 mg kg^−1 day^−1) for 21 days", "from_the_text": "All cats regained weight when the dosing ended. Because diabetic cats are often presented as a result of weight loss, the degree of […] would clearly be adverse and incompatible with treatment."}, "[4]": {"settings": "by visit, non-parametric test highly significant"}},
  "note": "Marks after values point to notes of the source that are not given here.",
  "data": [
    {"smiles": "OC[C@H]1O[C@@H](c2ccc(Cl)c(Cc3ccc(OCCOC4CC4)cc3)c2)[C@H](O)[C@@H](O)[C@@H]1O", "note": "[bexagliflozin, (2S,3R,4R,5S,6R)-2-(4-chloro-3-(4-(2-cyclopropoxyethoxy)benzyl)phenyl)-6-(hydroxymethyl)tetrahydro-2H-pyran-3,4,5-triol]", "values": [
      {"measurement": "change in plasma glucose levels", "setting": "[1]; ZDF rats, after 7 days, 0.067 mg kg^−1", "value": "+2.8%"},
      {"measurement": "change in plasma glucose levels", "setting": "[1]; ZDF rats, after 7 days, 0.2 mg kg^−1", "value": "−16.8", "unit": "%"},
      {"measurement": "change in plasma glucose levels", "setting": "[1]; ZDF rats, after 7 days, 0.67 mg kg^−1", "value": "−17.1", "unit": "%"},
      {"measurement": "change in plasma glucose levels", "setting": "[1]; ZDF rats, after 7 days, 2.0 mg kg^−1", "value": "−25.3", "unit": "%"},
      {"measurement": "change in plasma glucose levels", "setting": "[1]; ZDF rats, after 14 days, 0.067 mg kg^−1", "value": "+9.5%"},
      {"measurement": "change in plasma glucose levels", "setting": "[1]; ZDF rats, after 14 days, 0.2 mg kg^−1", "value": "−5.6", "unit": "%"},
      {"measurement": "change in plasma glucose levels", "setting": "[1]; ZDF rats, after 14 days, 0.67 mg kg^−1", "value": "−8.1", "unit": "%"},
      {"measurement": "change in plasma glucose levels", "setting": "[1]; ZDF rats, after 14 days, 2.0 mg kg^−1", "value": "−25.1", "unit": "%"},
      {"measurement": "change in plasma glucose levels", "setting": "[1]; ZDF rats, after 21 days, 0.067 mg kg^−1", "value": "+15.5%"},
      {"measurement": "change in plasma glucose levels", "setting": "[1]; ZDF rats, after 21 days, 0.2 mg kg^−1", "value": "+4.3%"},
      {"measurement": "change in plasma glucose levels", "setting": "[1]; ZDF rats, after 21 days, 0.67 mg kg^−1", "value": "+1.5%"},
      {"measurement": "change in plasma glucose levels", "setting": "[1]; ZDF rats, after 21 days, 2.0 mg kg^−1", "value": "−15.4", "unit": "%"},
      {"measurement": "blood glucose, level below which it was not reduced", "setting": "[1]; ZDF rats, sole agent, any dose group", "value": "≥ 287", "unit": "mg/dL"},
      {"measurement": "plasma glucose levels", "setting": "[1]; 0.067 mg kg^−1 oral once daily, Day 0", "value": "373.2 ± 29.5", "unit": "mg/dL"},
      {"measurement": "plasma glucose levels", "setting": "[1]; 0.067 mg kg^−1 oral once daily, Day 7", "value": "383.7 ± 33.1", "unit": "mg/dL"},
      {"measurement": "plasma glucose levels", "setting": "[1]; 0.067 mg kg^−1 oral once daily, Day 14", "value": "408.6 ± 19.6", "unit": "mg/dL"},
      {"measurement": "plasma glucose levels", "setting": "[1]; 0.067 mg kg^−1 oral once daily, Day 21", "value": "431.0 ± 19.7", "unit": "mg/dL"},
      {"measurement": "plasma glucose levels, Day 21 Δ", "setting": "[1]; 0.067 mg kg^−1 oral once daily", "value": "+57.8 ± 41.7 mg dL^−1"},
      {"measurement": "plasma glucose levels", "setting": "[1]; 0.2 mg kg^−1 oral once daily, Day 0", "value": "386.6 ± 28.2", "unit": "mg/dL"},
      {"measurement": "plasma glucose levels", "setting": "[1]; 0.2 mg kg^−1 oral once daily, Day 7", "value": "321.8 ± 19.5", "unit": "mg/dL"},
      {"measurement": "plasma glucose levels", "setting": "[1]; 0.2 mg kg^−1 oral once daily, Day 14", "value": "364.9 ± 13.1", "unit": "mg/dL"},
      {"measurement": "plasma glucose levels", "setting": "[1]; 0.2 mg kg^−1 oral once daily, Day 21", "value": "403.2 ± 20.1", "unit": "mg/dL"},
      {"measurement": "plasma glucose levels, Day 21 Δ", "setting": "[1]; 0.2 mg kg^−1 oral once daily", "value": "+16.6 ± 36.6 mg dL^−1"},
      {"measurement": "plasma glucose levels", "setting": "[1]; 0.67 mg kg^−1 oral once daily, Day 0, n = 10", "value": "384.4 ± 27.5", "unit": "mg/dL"},
      {"measurement": "plasma glucose levels", "setting": "[1]; 0.67 mg kg^−1 oral once daily, Day 7", "value": "318.7 ± 32.0", "unit": "mg/dL"},
      {"measurement": "plasma glucose levels", "setting": "[1]; 0.67 mg kg^−1 oral once daily, Day 14", "value": "353.4 ± 18.9", "unit": "mg/dL"},
      {"measurement": "plasma glucose levels", "setting": "[1]; 0.67 mg kg^−1 oral once daily, Day 21, n = 9", "value": "374.2 ± 37.3", "unit": "mg/dL"},
      {"measurement": "plasma glucose levels, Day 21 Δ", "setting": "[1]; 0.67 mg kg^−1 oral once daily, n = 9", "value": "+5.4 ± 30.8^b mg dL^−1"},
      {"measurement": "plasma glucose levels", "setting": "[1]; 2 mg kg^−1 oral once daily, Day 0", "value": "384.8 ± 16.5", "unit": "mg/dL"},
      {"measurement": "plasma glucose levels", "setting": "[1]; 2 mg kg^−1 oral once daily, Day 7", "value": "287.4 ± 27.4", "unit": "mg/dL"},
      {"measurement": "plasma glucose levels", "setting": "[1]; 2 mg kg^−1 oral once daily, Day 14", "value": "288.3 ± 17.1", "unit": "mg/dL"},
      {"measurement": "plasma glucose levels", "setting": "[1]; 2 mg kg^−1 oral once daily, Day 21", "value": "325.4 ± 13.0", "unit": "mg/dL"},
      {"measurement": "plasma glucose levels, Day 21 Δ", "setting": "[1]; 2 mg kg^−1 oral once daily", "value": "-59.4 ± 22.4", "unit": "mg/dL"},
      {"measurement": "treatment effect on the gain in body mass per cat", "setting": "[2]; baseline to week 8, p<0.0001", "value": "highly significant"},
      {"measurement": "cats that either maintained or increased their weight", "setting": "[2]; by day 56", "value": 82, "unit": "%"},
      {"measurement": "mean owner scores for polydipsia", "setting": "[2]; [4]", "value": "declined"},
      {"measurement": "mean owner scores for polyuria", "setting": "[2]; [4]", "value": "declined"},
      {"measurement": "mean owner scores for polyphagia", "setting": "[2]; by visit, non-parametric test significant", "value": "declined"},
      {"measurement": "weight of case 5 at study end", "setting": "[2]; case 5, decreased from 5.4 kg", "value": 5.1, "unit": "kg"},
      {"measurement": "treatment outcome of cats with IGF-1 above the upper limit of normal (92 nmol/L)", "setting": "[2]; cases 7, 28 and 30, V5", "value": "All three cases were considered treatment successes"},
      {"measurement": "symptomatic hypoglycemia", "setting": "[2]; diabetic cats, field study", "value": "None of the cats exhibited a symptomatic hypoglycemia"},
      {"measurement": "Veterinarian Glycemic Control Criteria Met", "setting": "[2]; individual cats, V5", "value": "Yes"},
      {"measurement": "Mean BG Criteria Met", "setting": "[2]; individual cats, V5, BG mean <250 mg dL^−1", "value": "Yes"},
      {"measurement": "cats removed from the study following an SAE", "setting": "[2]; of 40 cats enrolled", "value": 6, "unit": "cats"},
      {"measurement": "Any Success, Col Sum (number of cats)", "setting": "[2]; of 40 enrolled cats", "value": 31},
      {"measurement": "Non-Weight Success, Col Sum (number of cats)", "setting": "[2]; of 40 enrolled cats", "value": 30},
      {"measurement": "Polydipsia Success, Col Sum (number of cats)", "setting": "[2]; of 40 enrolled cats", "value": 23},
      {"measurement": "Polyphagia Success, Col Sum (number of cats)", "setting": "[2]; of 40 enrolled cats", "value": 17},
      {"measurement": "Polyuria Success, Col Sum (number of cats)", "setting": "[2]; of 40 enrolled cats", "value": 24},
      {"measurement": "Weight Success, Col Sum (number of cats)", "setting": "[2]; of 40 enrolled cats", "value": 22},
      {"measurement": "cats achieving a fructosamine concentration below the upper limit of normal", "setting": "[2]; of the 32 cats completing the study", "value": 26, "unit": "cats"},
      {"measurement": "average cat weight", "setting": "[2]; over the course of the study", "value": "increased"},
      {"measurement": "cats considered treatment successes", "setting": "[2]; thirty-two of the 40 cats enrolled, Day 56±3", "value": 80, "unit": "%"},
      {"measurement": "fructosamine of cats with elevated IGF-1", "setting": "[2]; three cats with elevated serum IGF-1", "value": "achieved a normal fructosamine concentration"},
      {"measurement": "mean serum β-hydroxybutyrate concentration", "setting": "[2]; week 8, 95% CI 1.40, 2.20, upper limit of normal 1.9 mg dL^−1", "value": 1.76, "unit": "mg/dL"},
      {"measurement": "mean serum fructosamine, % of the upper limit of normal", "setting": "[2]; week 8, 95% CI 80.0%, […]", "value": 86.7, "unit": "%"},
      {"measurement": "mean serum glucose", "setting": "[2]; week 8, 95% CI 127, 163", "value": 144},
      {"measurement": "mean of the five blood glucose determinations", "setting": "[2]; week 8, in-clinic blood glucose curve, 95% CI 102.8, 128.4", "value": 114.9, "unit": "mg/dL"},
      {"measurement": "body weight", "setting": "[3]", "value": "cats lost weight throughout the study"}
    ]}
  ]
}
